Measured values published in patent publication US20210251237A1, “PLATFORM FOR DEVELOPING SOIL-BORNE PLANT PATHOGEN INHIBITING MICROBIAL CONSORTIA” (priority 2018, published 2021).
“Also recorded” adds a separate entry of the source. Where two headings read alike, the source gives them in different places.

Assays:
[1] = test system: Fusarium oxysporum; experiment: Pathogen suppressive activity plate assay (zone of inhibition); assay type: cell-based; conditions: for zone of inhibition: Table 1; for mean inhibitory zone size: Table 4
[2] = test system: clinical antimicrobials (antibiotic discs); experiment: Antibiotic disc resistance/susceptibility assay of microbial isolates; assay type: cell-based
[3] = test system: potato scab; experiment: Potato field trials: percent scab control; assay type: in vivo; parameters: concentration or dose not given beside the values
[4] = test system: Pythium ultimum var. sporangiferum; experiment: Pathogen suppressive activity plate assay (zone of inhibition); assay type: cell-based
[5] = test system: Phytophthora sojae; experiment: as above; assay type: cell-based
[6] = test system: Phytophthora sojae; experiment: Phytophthora sojae control on soybean, growth chamber; assay type: in vivo; conditions: growth chamber trials
[7] = test system: Rhizoctonia solani; experiment: Pathogen suppressive activity plate assay (zone of inhibition); assay type: cell-based; conditions: for mean inhibitory zone size: Table 4
[8] = test system: Fusarium virguliforme; experiment: as above; assay type: cell-based; conditions: Table 4
[9] = test system: F. culmorum; experiment: as above; assay type: cell-based; conditions: Table 1; pathogen isolate P61
[10] = test system: Phytophthora medicaginis; experiment: Phytophthora medicaginis control on alfalfa, greenhouse; assay type: in vivo; conditions: field soil naturally infested, 28 days, inoculated vs non-inoculated
From the text: FIG. 7A-B. Inoculant included in this figure: GS1. FIG. 7A depicts the severity of disease on […]. The present figure was constructed utilizing methods from Example 9(F)(iii). […] Briefly, soils were inoculated with a liquid spore suspension of a single Streptomyces isolate at planting. Alfalfa seeds were planted into field soil that was naturally-infested with the pathogen Phytophthora medicaginis. After 28 days, plants were harvested for disease and biomass assessments.
Inoculum was prepared as described above, and used to inoculate seeds planted in field soil placed in sterile tins. Inoculation occurred immediately after planting. […] GS1 was thus shown to promote plant growth.

[11] = test system: corn; experiment: Plant growth promotion, greenhouse (FIG. 27); assay type: in vivo
Protocol: (§1) Wheat, alfalfa, corn, and soybean plants were evaluated for the growth response to microbial inoculants in growth chamber and greenhouse conditions. For each crop, containers (6.5 cm diameter x 25 cm long) were filled with steamed (sterile) greenhouse soil mix (500 ml) and planted with two (corn, soy, wheat) or three (alfalfa) seeds. Crop varieties were: SOY: AG 0832; CORN: Viking, WHEAT: Prosper, ALFALFA: Saranac. Seeds were inoculated with microbial isolates from the enriched microbial library immediately after planting (2 ml of water agar containing the inoculant per seed, 1×10^11 cells inoculant/ml). Control plants were allowed to grow without the microbial inoculants Plants were grown in the greenhouse and harvested at 3 weeks (corn), 4 weeks (wheat), 4.5 weeks (soybean) and 5 weeks (alfalfa). At harvest, the roots were carefully washed, and above- and belowground fresh weights were recorded (g). Plants were subsequently placed in paper bags and maintained in the 95° F. drying oven for 3 days, after which dry weights were also recorded. Plant weights were compared between inoculated and non-inoculated treatments.
(§2) For each crop (wheat, alfalfa, soybean, corn), a container (6.5 cm dia×25 cm long; approximately 500 cc of soil) was filled with steamed (sterile) greenhouse soil mix and planted with two of each seed (corn, soy, wheat) or three seeds (alfalfa) at a 0.5 inch depth. Crop varieties were: SOY: AG 0832; CORN: Viking, WHEAT: Prosper, ALFALFA: Saranac. Wheat, soybean and corn seeds (but not alfalfa) were surface sterilized before planting. Seeds were not treated with any fungicides or other chemicals. All crops were thinned to one seed per container following emergence. Ten replicate containers were planted for each inoculant and for the non-inoculated control.
(§3) Streptomyces cultures GS1 and PS1 were grown for 7-10 days on plates containing oatmeal agar (OA), and collected in 20% glycerol stocks. Stocks were serially diluted and plated on water agar (WA) for quantification. Stocks were then diluted to approximately 1×10^11 colony-forming units per ml.
(§4) For each inoculant, 2 ml of stock was distributed over the seeds at planting. Seeds and containers were watered when needed. Plants were incubated in the greenhouse and harvested at 3 weeks (corn), 4 weeks (wheat), 4.5 weeks (soybean) and 5 weeks (alfalfa). No additional nitrogen was added. At harvest for each crop, the roots were carefully washed, and above- and belowground fresh weights were recorded (g). Plants were subsequently placed in paper bags and maintained in the 95° F. drying oven for 3 days, after which dry weights were also recorded. Plant weights were compared between inoculated and non-inoculated treatments.

[12] = test system: soybean; experiment: Plant growth promotion, greenhouse (FIG. 27); assay type: in vivo
Protocol: as §1, §2, §3, §4

[13] = test system: wheat; experiment: Plant growth promotion, greenhouse (FIG. 27); assay type: in vivo
Protocol: as §1, §2, §3, §4

[14] = test system: alfalfa; experiment: Plant growth promotion, greenhouse (FIG. 27); assay type: in vivo
Protocol: as §1, §2, §3, §4

[15] = test system: Wheat, alfalfa, corn, and soybean plants; experiment: Plant growth promotion, greenhouse (FIG. 27); assay type: in vivo; conditions: plant biomass
Protocol: as §1, §2, §3, §4

[16] = test system: Sclerotinia sclerotiorum; experiment: Pathogen suppressive activity plate assay (zone of inhibition); assay type: cell-based; conditions: for mean inhibitory zone size: Table 4
[17] = test system: Phytophthora medicaginis; experiment: as above; assay type: cell-based; conditions: for zone of inhibition: Table 1; for mean inhibitory zone size: Table 4
[18] = test system: Fusarium graminearum; assay type: cell-based; conditions: for zone of inhibition: Table 1; for mean inhibitory zone size: Table 4

Streptomyces lydicus [GS1]
zone of inhibition ([1]; pathogen isolate P27): 0 mm | zone of inhibition ([1]; pathogen isolate P29): 0 mm | mean inhibitory zone size ([1]; pathogen target isolate P25): 2.15 mm | mean inhibitory zone size ([1]; pathogen target isolate P26): 9.38 mm | mean inhibitory zone size ([1]; pathogen target isolate P28): 0 mm | mean inhibitory zone size ([1]; pathogen target isolate P29): 0 mm | Antibiotic resistance characteristics ([2]; Amoxicillin Clavulanate): R (R-resistant (0 inhibition zone)) | Antibiotic resistance characteristics ([2]; Chloramphenicol): R (R-resistant (0 inhibition zone)) | Antibiotic resistance characteristics ([2]; Erythromycin): S (S-susceptible (>10 mm)) | Antibiotic resistance characteristics ([2]; Kanamycin): S (S-susceptible (>10 mm)) | Antibiotic resistance characteristics ([2]; Novobiocin 5): MS (MS-moderately susceptible (6-10 mm)) | Antibiotic resistance characteristics ([2]; Novobiocin 30): MS (MS-moderately susceptible (6-10 mm)) | Antibiotic resistance characteristics ([2]; Penicillin): R (R-resistant (0 inhibition zone)) | Antibiotic resistance characteristics ([2]; Rifampin): R (R-resistant (0 inhibition zone)) | Antibiotic resistance characteristics ([2]; Streptomycin): S (S-susceptible (>10 mm)) | Antibiotic resistance characteristics ([2]; Tetracycline): R (R-resistant (0 inhibition zone)) | Antibiotic resistance characteristics ([2]; Vancomycin 5): MS (MS-moderately susceptible (6-10 mm)) | Antibiotic resistance characteristics ([2]; Vancomycin 30): MS (MS-moderately susceptible (6-10 mm)) | Percent Control (reduction in scab severity vs non-inoculated plots) ([3]; experiment BPP, disease on non-inoculated tubers 22.2): 33% | Percent Control (reduction in scab severity vs non-inoculated plots) ([3]; experiment BSCR, disease on non-inoculated tubers 16.2): 35% | Percent Control (reduction in scab severity vs non-inoculated plots) ([3]; experiment BSP, disease on non-inoculated tubers 24.3): 42% | Percent Control (reduction in scab severity vs non-inoculated plots) ([3]; experiment BWP, disease on non-inoculated tubers 26.7): 38% | Percent Control (reduction in scab severity vs non-inoculated plots) ([3]; experiment RPP, disease on non-inoculated tubers 15.6): 37% | Percent Control (reduction in scab severity vs non-inoculated plots) ([3]; experiment RSP, disease on non-inoculated tubers 8.8): 39% | zone of inhibition ([4]; Table 1, pathogen isolate P58): 9.95 mm | mean inhibitory zone size ([4]; Table 4, pathogen target isolate P58): 9.95 mm | inhibition of pathogen (in words) ([5]; P52 isolate of Phytophthora sojae): does not | zone of inhibition ([5]; Table 1, pathogen isolate P52): 0 mm | mean inhibitory zone size ([5]; Table 4, pathogen target isolate P52): 0 mm | reduction of disease severity ([6]; soil infested with P. sojae): 93% | percent healthy plants ([6]; FIG. 7A): increased | inhibition of pathogen (in words) ([7]; P6 isolate of Rhizoctonia solani): inhibits | zone of inhibition ([7]; Table 1, pathogen isolate P6): 9.15 mm | mean inhibitory zone size ([7]; pathogen target isolate P5): 8.95 mm | mean inhibitory zone size ([7]; pathogen target isolate P6): 9.15 mm | mean inhibitory zone size ([7]; pathogen target isolate P12): 9.78 mm | mean inhibitory zone size ([8]; pathogen target isolate P20): 0 mm | mean inhibitory zone size ([8]; pathogen target isolate P21): 1.3 mm | mean inhibitory zone size ([8]; pathogen target isolate P22): 0 mm | mean inhibitory zone size ([8]; pathogen target isolate P23): 0 mm | zone of inhibition [9]: 4.68 mm | disease [10]: significantly reduced; also recorded: reduced disease | plant biomass [10]: significantly increased; also recorded: significant increases | fresh and dry weights [11]: not | dry weight [12]: significant increases | fresh and dry weights [13]: not | fresh and dry weights [14]: significant enhancements | growth promotion ([14]; FIG. 27): promote the growth | promotion of growth of inoculated vs non-inoculated plants [15]: statistically significant effect | zone of inhibition ([16]; Table 1, pathogen isolate P19): 8.63 mm | mean inhibitory zone size ([16]; pathogen target isolate P17): 16.8 mm | mean inhibitory zone size ([16]; pathogen target isolate P18): 12.8 mm | mean inhibitory zone size ([16]; pathogen target isolate P19): 8.63 mm | zone of inhibition ([17]; pathogen isolate P43): 4.53 mm | zone of inhibition ([17]; pathogen isolate P44): 10.45 mm | mean inhibitory zone size ([17]; pathogen target isolate P43): 4.53 mm | mean inhibitory zone size ([17]; pathogen target isolate P44): 10.45 mm | zone of inhibition ([18]; pathogen isolate P31): 8.63 mm | zone of inhibition ([18]; pathogen isolate P34): 16.28 mm | mean inhibitory zone size ([18]; pathogen target isolate P30): 14.58 mm | mean inhibitory zone size ([18]; pathogen target isolate P31): 8.63 mm | mean inhibitory zone size ([18]; pathogen target isolate P32): 11.5 mm | mean inhibitory zone size ([18]; pathogen target isolate P33): 13.13 mm | mean inhibitory zone size ([18]; pathogen target isolate P34): 16.28 mm | mean inhibitory zone size ([18]; pathogen target isolate P35): 11.03 mm
